Source: patent US6001829A, “Fluoropropenyl oxadiazoles and the use thereof as pest control agents” (Bayer Aktiengesellschaft, priority 1995, dated 1999)
Where two headings read alike, the source gives them in different places.

Columns and labels:
[1] = test system: mustard beetle larvae (Phaedon cochleariae); test: Phaedon Larvae Test; format: in vivo; conditions: 168 h, 0.1% active compound, after 7 days, dipped cabbage leaves, read-out: kill
Protocol: (§1) Solvent: 7 parts by weight of dimethylformamide
(§2) Emulsifier: 1 part by weight of alkylaryl polyglycol ether
(§3) To produce a suitable preparation of active compound, 1 part by weight of active compound is mixed with the stated amount of solvent and the stated amount of emulsifier, and the concentrate is diluted with water to the desired concentration.
Cabbage leaves (Brassica oleracea) are treated by being dipped into the active compound preparation of the desired concentration and are populated with mustard beetle larvae (Phaedon cochleariae) while the leaves are still moist.
After the desired period of time, the kill in % is determined. 100% means that all the beetle larvae have been killed, 0% means that none of the beetle larvae have been killed.

[2] = test system: larvae of the green rice leaf hopper (Nephotettix cincticeps); test: Nephotettix Test; format: in vivo; conditions: 144 h, read-out: kill
Protocol: as §1, §2, §3
Rice seedlings (Oryzae sativa) are treated by being dipped into the active compound preparation of the desired concentration and are populated with larvae of the green rice leaf hopper (Nephotettix cincticeps) while the seedlings are still moist.
After the desired period of time, the kill in % is determined. 100% means that all the leaf hoppers have been killed; 0% means that none of the leaf hoppers have been killed.

[3] = test system: black bean aphid (Aphis fabae); test: Myzus Test (Duration of Activity after Spraying); format: in vivo; conditions: 0.1% active compound, dipped bean shoots, time not stated, read-out: kill
Protocol: Myzus Test (Duration of Activity after Spraying)
as §1, §2, §3
Bean shoots (Vicia faba) which are heavily infested by the black bean aphid (Aphis fabae) are treated by being dipped into the active compound preparation of the desired concentration.
After the desired period of time, the kill in % is determined. 100% means that all aphids have been killed, 0% means that none of the aphids have been killed.

[4] = test system: caterpillars of the owlet moth Spodoptera frugiperda; test: Spodoptera Test; format: in vivo; conditions: 168 h, 0.1% active compound, after 7 days, dipped cabbage leaves, read-out: kill
Protocol: as §1, §2, §3
Cabbage leaves (Brassica oleracea) are treated by being dipped into the active compound preparation of the desired concentration and are populated with caterpillars of the owlet moth Spodoptera frugiperda) while the leaves are still moist.
(§4) After the desired period of time, the kill in % is determined. 100% means that all the caterpillars have been killed, 0% means that none of the caterpillars have been killed.

[5] = test system: Boophilus Microplus Resistent/SP-Resistent Parkhurst Strain; test: Test with Boophilus Microplus Resistent/SP-Resistent Parkhurst Strain; format: in vivo; conditions: 200 μg/animal; injected into the abdomen; adult females which have sucked themselves full
Protocol: Test with Boophilus Microplus Resistent/SP-Resistent Parkhurst Strain
Adult females which have sucked themselves full […]
The test is carried out in 5 replications. I μl of the solutions is injected into the abdomen, and the animals are transferred into dishes and kept in an air-conditioned room. The activity is determined via the inhibition of oviposition. 100% means that no tick has deposited eggs.

[6] = test system: caterpillars of the diamond back moth (Plutella xylostella); test: Plutella Test; format: in vivo; conditions: 168 h, 0.1% active compound, after 7 days, dipped cabbage leaves, read-out: kill
Protocol: as §1, §2, §3
Cabbage leaves (Brassica oleracea) are treated by being dipped into the active compound preparation of the desired concentration and are populated with caterpillars of the diamond back moth (Plutella xylostella) while the leaves are still moist.
as §4

[7] = test system: all larval stages of Lucilia cuprina (OP resistent); test: Test with Fly Larvae/Development-Inhibitory Action; format: in vivo; conditions: 1000 ppm active compound, on horse meat, larvicidal effect after 48 h
Protocol: Test with Fly Larvae/Development-Inhibitory Action
all larval stages of Lucilia cuprina (OP resistent)
[pupae and adults (without contact with the active
Solvent: 35 parts by weight of ethylene glycol monomethyl ether
35 parts by weight of nonylphenol polyglycol ether
To produce a suitable preparation, 3 parts by weight of the active compound are mixed with 7 parts by weight of the abovementioned solvent-emulsifier mixture, and the resulting emulsion concentrate is diluted with water to the concentration desired in each case.
For each concentration, 30 to 50 larvae are introduced into a test tube which contains horse meat (1 cm^3). 500 μl of the dilution to be tested are pipetted onto this horse meat. The test tubes are placed in plastic beakers whose bottom is covered with sea sand, and kept in an air-conditioned room (26° C.±1.5° C., 70%±10% relative humidity). The activity is examined (larvicidal action) after 24 hours and 48 hours. After emergence of the larvae (about 72 h), the test tubes are removed and perforated plastic lids are fitted onto the beakers. After 1.5 times the development time (hatching of control flies), the hatched flies and the pupae/cocoons are counted.
The activity criterion is the incidence of death in the treated larvae after 48 h (larvicidal effect), or the inhibition of hatching of adults from pupae or the inhibition of pupae formation. The criterion for the in vitro activity of a substance is the inhibition of the development of the […], or a development standstill before the adult stage. 100% larvicidal action means that all the larvae have been killed after 48 hours. 100% development-inhibitory action means that no adult flies have hatched.

[8] = log p: n-octanol/water partition coefficient determined by reverse phase HPLC analysis using H2O/CH3CN; format: physicochemical
Source text: *log p: logarithm to base ten of the noctanol/water partition coefficient
determined by reverse phase HPLC analysis using H2 O/CH3 CN.

[9] = test system: Meloidogyne incognita; test: Critical Concentration Test/Nematodes; format: in vivo; conditions: 20 ppm active compound in soil; after four weeks; lettuce roots (root galls)
Protocol: Critical Concentration Test/Nematodes
Solvent: 4 parts by weight of acetone
as §2
To produce a suitable preparation of active compound, 1 part by weight of active compound is mixed with the stated amount of solvent, the stated amount of emulsifier is added and the concentrate is diluted with water to the desired concentration.
The active compound preparation is intimately mixed with soil which is heavily infested with the test nematodes. The active compound concentration in the preparation is immaterial, only the amount of active compound per unit volume of soil, which is given in ppm (=mg/l), matters. The treated soil is transferred into pots, lettuce seeds are sown, and the pots are kept at a greenhouse temperature of 25° C.
After four weeks, the lettuce roots are checked for infestation with nematodes (root galls) and the efficacy of the active compound in % is determined. The efficacy is 100% when infestation is avoided completely and 0% when the infestation level is just as high as in the control plants in untreated, but equally infested, soil.

| chromatographic logP ([8]; pH 2) | chromatographic logP ([8]; pH 7.5) | SMILES | mortality at 0.1 % strength [1] | mortality at 0.1 % strength [4] | mortality at 0.1 % strength [6] | inhibition at 1000 ppm [7] | also measured |
| --- | --- | --- | --- | --- | --- | --- | --- |
|  |  | Cc1ccc(-c2noc(CC(F)=C(F)F)n2)cc1 [Example 1, 3-(4-methylphenyl)-5-(2,3,3-trifluoroprop-2-enyl)-1,2,4-oxadiazole] | 100% | ≥ 85% | ≥ 90% |  | mortality at 0.1 % strength [2]: 100%; mortality at 0.1 % strength [3]: 90%; activity (inhibition of oviposition) [5]: 100% |
|  |  | FC(F)=C(F)Cc1nnc(-c2ccc(Cl)cc2)o1 [Example 2, 2-(4-chlorophenyl)-5-(2,3,3-trifluoroprop-2-enyl)-1,3-4-oxadiazole] | 100% |  | ≥ 90% |  | mortality at 0.1 % strength [2]: 100%; mortality at 0.1 % strength [3]: 80% |
|  |  | FC(F)=C(F)Cc1nc(CCl)no1 [Example 4] |  |  |  |  | chromatographic logP ([8]; pH not stated): 2.08 |
| 3.3 |  | FC(F)=C(F)Cc1nc(-c2ccccc2Cl)no1 [Example 5] |  |  | ≥ 90% | 100% |  |
| 4.72 |  | FC(F)=C(F)Cc1nc(-c2cc(Cl)cc(Cl)c2)no1 [Example 6] |  |  |  |  |  |
| 3.2 |  | FC(F)=C(F)Cc1nc(-c2ccccc2)no1 [Example 7] | 100% | ≥ 85% | ≥ 90% | 100% |  |
|  | 2.46 | COc1ccc(-c2nnc(CC(F)=C(F)F)o2)cc1 [Example 8] |  |  | ≥ 90% |  |  |
|  | 1.89 | FC(F)=C(F)Cc1nnc(-c2ccco2)o1 [Example 9] |  |  |  |  |  |
|  | 2.19 | FC(F)=C(F)Cc1nnc(-c2cccs2)o1 [Example 10] |  |  |  |  | efficacy [9]: 100% |

| SMILES | chromatographic logP ([8]; pH 2) | chromatographic logP ([8]; pH 7.5) | mortality at 0.1 % strength [1] | mortality at 0.1 % strength [4] | mortality at 0.1 % strength [6] | inhibition at 1000 ppm [7] | also measured |
| --- | --- | --- | --- | --- | --- | --- | --- |
| FC(F)=C(F)Cc1nc(-c2c(Cl)cccc2Cl)no1 [Example 3] | 3.44 |  |  | ≥ 85% | ≥ 90% | 100% | mortality at 0.1 % strength ([2]; 0.1% active compound, after 6 days, dipped rice seedlings): 100% |
